Reference: paper PMC10343887, “Structural Optimization of BIPPO Analogs as Potent Antimalarials” (Molecules, 2023)
Like-named read-outs stand apart in the source and are kept apart here.

Experiments:
P. falciparum = assay: Antimalarial screening against asexual blood stage P. falciparum; format: cell-based, Plasmodium falciparum; conditions: for fold potency decrease compared with 30 / fold decreased antimalarial potency compared to 3: P. falciparum; for fold potency decrease compared with 30: relative to 30; for fold decreased antimalarial potency compared to 3: relative to 3; for IC50: Plasmodium falciparum, read-out: P. fal pIC50 (converted)
Protocol: Previously, Howard et al. reported (sub)micromolar activity against P. falciparum for a series of BIPPO analogs with benzyl substituents. To further understand the structure–activity relationship (SAR) of this interesting scaffold, close analogs of 3 with substituents at R^1–R^4 positions were tested against P. falciparum and human MRC-5 cells as the control for non-specific toxicity (Table 1).
The assay for antimalarial activity was carried out as described in detail in Pereira et al..

[1] = Non-specific toxicity control on human MRC-5 cells; format: cell-based
[2] = Metabolic stability in mouse liver microsomes (S9 fraction); format: in vitro ADME
Protocol: Thus, compounds 23, 28–30, 47a and 47b with high potencies (pIC50 > 6) were evaluated for their in vitro metabolic stability in human and mouse liver microsomes (S9 fraction) with diclofenac as a reference compound. As summarized in Figure 2, substituents in the R^4 position affect metabolic stability. […] Their stability against mouse liver microsomes is lower, especially for their Phase I metabolism; only 38% and 26% of the parent compounds are left for 23 and 29 after one hour of incubation. […] For the adamantanyl analogs 30, 47a and 47b, metabolic stability differs drastically, with Phase I identified as the main metabolic pathway. Analog 47b was metabolized for >95% within 30 min with mouse liver microsomes, while 90% of 47a (tert-butyl analog) was left after one hour of incubation.
The assay for metabolic stability in human and mouse liver microsomal fractions (S9) was performed as described.

[3] = human MRC-5 cells, average values n ≥ 2, s.d. < 0.3, read-out: MRC-5 pIC50 (converted)
[4] = potency against asexual blood stage of P. falciparum, average values n ≥ 2, s.d. < 0.3

| Compound | IC50 [1, 3] [µM] | IC50 (P. falciparum; [4]) [µM] | further results |
| --- | --- | --- | --- |
| CC(C)(C)c1n[nH]c2c(=O)[nH]c(C34CC5CC(CC(C5)C3)C4)nc12 [47a, 5-(Adamantan-1-yl)-3-(tert-butyl)-1,6-dihydro-7H-pyrazolo[4,3-d]pyrimidin-7-one] | > 63.1 | – | fold potency decrease compared with 30 (P. falciparum): 4 fold; metabolic stability in mouse liver microsomes (in words) ([2]; mouse liver microsomes): favorable metabolic stability; parent compound left ([2]; mouse liver microsomes, one hour of incubation, phase not given): 90% |
| CC(C)c1n[nH]c2c(=O)[nH]c(C3(c4ccccc4)CC3)nc12 [compound 16, 3-Isopropyl-5-(1-phenylcyclopropyl)-1,6-dihydro-7H-pyrazolo[4,3-d]pyrimidin-7-one] | > 63.1 | 3.16 | fold decreased antimalarial potency compared to 3 (P. falciparum): 5- to 25 fold |
| CC(C)c1n[nH]c2c(=O)[nH]c(C(C)(C)c3ccccc3)nc12 [compound 14, 3-Isopropyl-5-(2-phenylpropan-2-yl)-1,6-dihydro-7H-pyrazolo[4,3-d]pyrimidin-7-one] | > 63.1 | 1 | – |
| CC(C)c1nn(C)c2c(=O)[nH]c(C34CC5CC(CC(C5)C3)C4)nc12 [38a, 5-(Adamantan-1-yl)-3-isopropyl-1-methyl-1,6-dihydro-7H-pyrazolo[4,3-d]pyrimidin-7-one] | > 63.1 | > 63.1 | fold potency decrease compared with 30 (P. falciparum): more than 400 fold |
| CC(C)c1n[nH]c2c(=O)[nH]c(C3CCN(C)CC3)nc12 [compound 25, 3-Isopropyl-5-(1-methylpiperidin-4-yl)-1,6-dihydro-7H-pyrazolo[4,3-d]pyrimidin-7-one diformate] | > 63.1 | > 63.1 | – |
| CC(C)c1n[nH]c2c(=O)[nH]c(C3(c4ccccc4)CCC3)nc12 [compound 17, 3-Isopropyl-5-(1-phenylcyclobutyl)-1,6-dihydro-7H-pyrazolo[4,3-d]pyrimidin-7-one] | 25.1 | 1.58 | – |
| CC(C)c1n[nH]c2c(=O)[nH]c(-c3ccc(N4CCN(C)CC4)cc3)nc12 [compound 7, 3-Isopropyl-5-(4-(4-methylpiperazin-1-yl)phenyl)-1,6-dihydro-7H-pyrazolo[4,3-d]pyrimidin-7-one] | > 39.8 | 7.94 | – |
| O=c1[nH]c(Cc2ccccc2)nc2c(C3CCCC3)n[nH]c12 [46b, 5-Benzyl-3-cyclopentyl-1,6-dihydro-7H-pyrazolo[4,3-d]pyrimidin-7-one] | > 63.1 | 1.58 | – |
| CC(C)c1n[nH]c2c(=O)[nH]c(-c3ccccc3)nc12 [compound 6, 3-Isopropyl-5-phenyl-1,6-dihydro-7H-pyrazolo[4,3-d]pyrimidin-7-one] | > 63.1 | 31.6 | fold decreased antimalarial potency compared to 3 (P. falciparum): 5- to 25 fold |
| CC(C)c1n[nH]c2c(=O)[nH]c(-c3ccc(=O)n(C)c3)nc12 [compound 10, 3-Isopropyl-5-(1-methyl-6-oxo-1,6-dihydropyridin-3-yl)-1,6-dihydro-7H-pyrazolo[4,3-d]pyrimidin-7-one] | > 63.1 | > 63.1 | – |
| CC(C)c1n[nH]c2c(=O)[nH]c(Cc3ccccc3)nc12 [compound 3, 5-Benzyl-3-isopropyl-1,6-dihydro-7H-pyrazolo[4,3-d]pyrimidin-7-one] | > 63.1 | 1.26 | – |
| CC(C)c1n[nH]c2c(=O)[nH]c(Cc3ccncc3)nc12 [compound 4, 3-Isopropyl-5-(pyridin-4-ylmethyl)-1,6-dihydro-7H-pyrazolo[4,3-d]pyrimidin-7-one] | > 63.1 | 7.94 | fold decreased antimalarial potency compared to 3 (P. falciparum): six |
| CC(C)c1c2nc(Cc3ccccc3)[nH]c(=O)c2nn1C [37b, 5-Benzyl-3-isopropyl-2-methyl-2,6-dihydro-7H-pyrazolo[4,3-d]pyrimidin-7-one] | > 63.1 | 5.01 | – |
| Cc1nc2c(C(C)C)n[nH]c2c(=O)[nH]1 [compound 19, 3-Isopropyl-5-methyl-1,6-dihydro-7H-pyrazolo[4,3-d]pyrimidin-7-one] | > 63.1 | 39.8 | – |
| CC(C)c1nn(C)c2c(=O)[nH]c(Cc3ccccc3)nc12 [37a, 5-Benzyl-3-isopropyl-1-methyl-1,6-dihydro-7H-pyrazolo[4,3-d]pyrimidin-7-one] | > 63.1 | 10 | – |
| CC(C)c1n[nH]c2c(=O)[nH]c(CCc3ccccc3)nc12 [compound 12, 3-Isopropyl-5-phenethyl-1,6-dihydro-7H-pyrazolo[4,3-d]pyrimidin-7-one] | > 63.1 | 6.31 | fold decreased antimalarial potency compared to 3 (P. falciparum): 5- to 25 fold |

| Compound | IC50 [1, 3] [µM] | IC50 (P. falciparum; [4]) [µM] | further results |
| --- | --- | --- | --- |
| CC(C)c1n[nH]c2c(=O)[nH]cnc12 [compound 18, 3-Isopropyl-1,6-dihydro-7H-pyrazolo[4,3-d]pyrimidin-7-one] | > 63.1 | > 63.1 | – |
| CC(C)c1n[nH]c2c(=O)[nH]c(-c3ccn(C)c(=O)c3)nc12 [compound 11, 3-Isopropyl-5-(1-methyl-2-oxo-1,2-dihydropyridin-4-yl)-1,6-dihydro-7H-pyrazolo[4,3-d]pyrimidin-7-one] | > 63.1 | > 63.1 | – |
| CC(C)(C)c1n[nH]c2c(=O)[nH]c(Cc3ccccc3)nc12 [46a, 5-Benzyl-3-(tert-butyl)-1,6-dihydro-7H-pyrazolo[4,3-d]pyrimidin-7-one] | 39.8 | 1.58 | – |
| CC(C)c1n[nH]c2c(=O)[nH]c([C@H]3CC[C@@H](O)CC3)nc12 [compound 26, cis-5-(4-Hydroxycyclohexyl)-3-isopropyl-1,6-dihydro-7H-pyrazolo[4,3-d]pyrimidin-7-one] | > 63.1 | – | – |
| CC(C)c1n[nH]c2c(=O)[nH]c(C3CCCC3)nc12 [compound 22, 5-Cyclopentyl-3-isopropyl-1,6-dihydro-7H-pyrazolo[4,3-d]pyrimidin-7-one] | > 63.1 | 0.794 | – |
| CC(C)c1n[nH]c2c(=O)[nH]c(-c3cscn3)nc12 [compound 9, 3-Isopropyl-5-(thiazol-4-yl)-1,6-dihydro-7H-pyrazolo[4,3-d]pyrimidin-7-one] | > 63.1 | > 63.1 | – |
| CC(C)c1n[nH]c2c(=O)[nH]c(-c3ccc(N4CCCCC4)cc3)nc12 [compound 8, 3-Isopropyl-5-(4-(piperidin-1-yl)phenyl)-1,6-dihydro-7H-pyrazolo[4,3-d]pyrimidin-7-one] | > 63.1 | > 50.1 | – |
| O=c1[nH]c(C23CC4CC(CC(C4)C2)C3)nc2c(C3CCCC3)n[nH]c12 [47b, 5-(Adamantan-1-yl)-3-cyclopentyl-1,6-dihydro-7H-pyrazolo[4,3-d]pyrimidin-7-one] | > 63.1 | < 1 | fold potency decrease compared with 30 (P. falciparum): 2.5 fold; P. fal pIC50 (P. falciparum; [4]): 6.2; metabolic stability relative to diclofenac ([2]; mouse Phase I assay): metabolized faster than diclofenac; metabolized ([2]; mouse liver microsomes, within 30 min): > 95% |
| CC(C)c1c2nc(C34CC5CC(CC(C5)C3)C4)[nH]c(=O)c2nn1C [38b, 5-(Adamantan-1-yl)-3-isopropyl-2-methyl-2,6-dihydro-7H-pyrazolo[4,3-d]pyrimidin-7-one] | > 63.1 | 2.51 | fold potency decrease compared with 30 (P. falciparum): more than 15 fold |
| CC(C)c1n[nH]c2c(=O)[nH]c(C3CCNCC3)nc12 [compound 32, 3-Isopropyl-5-(piperidin-4-yl)-1,6-dihydro-7H-pyrazolo[4,3-d]pyrimidin-7-one] | – | > 63.1 | IC50 ([1]; human): > 63.1 µM |
| CC(C)c1n[nH]c2c(=O)[nH]c([C@H]3CC[C@H](O)CC3)nc12 [compound 27, trans-5-(4-Hydroxycyclohexyl)-3-isopropyl-1,6-dihydro-7H-pyrazolo [4,3-d]pyrimidin-7-one] | > 63.1 | 5.01 | – |
| COC(c1ccccc1)c1nc2c(C(C)C)n[nH]c2c(=O)[nH]1 (racemic) [compound 15, (racemic)-3-Isopropyl-5-(methoxy(phenyl)methyl)-1,6-dihydro-7H-pyrazolo[4,3-d]pyrimidin-7-one] | > 63.1 | 7.94 | fold decreased antimalarial potency compared to 3 (P. falciparum): 5- to 25 fold |
| CCCCc1nc2c(C(C)C)n[nH]c2c(=O)[nH]1 [compound 21, 5-Butyl-3-isopropyl-1,6-dihydro-7H-pyrazolo[4,3-d]pyrimidin-7-one] | > 63.1 | 1.26 | – |
| CC(C)c1n[nH]c2c(=O)[nH]c(C3CCOCC3)nc12 [compound 24, 3-Isopropyl-5-(tetrahydro-2H-pyran-4-yl)-1,6-dihydro-7H-pyrazolo[4,3-d]pyrimidin-7-one] | > 63.1 | 5.01 | – |
| CC(C)c1n[nH]c2c(=O)[nH]c(C(C)c3ccccc3)nc12 (racemic) [compound 13, (racemic)-3-Isopropyl-5-(1-phenylethyl)-1,6-dihydro-7H-pyrazolo[4,3-d]pyrimidin-7-one] | > 63.1 | 1.26 | – |
| CC(C)c1nc2c(C(C)C)n[nH]c2c(=O)[nH]1 [compound 20, 3,5-Diisopropyl-1,6-dihydro-7H-pyrazolo[4,3-d]pyrimidin-7-one] | > 63.1 | 3.98 | – |
